In patent publication USRE38117E1, “Trioxane dimer compound having antiproliferative and antitumor activities” (Hauser, Inc., priority 1995, dated 2003):

Experiments:
Format in all cases: cell-based
HCT-15 = experiment: NCI 60 cell line screen (SRB), Colon Cancer; conditions: HCT-15 (Colon Cancer)
LOX IMVI = experiment: NCI 60 cell line screen (SRB), Melanoma
NCI-H522 = experiment: NCI 60 cell line screen (SRB), Non-Small Cell Lung Cancer
SF-539 = experiment: NCI 60 cell line screen (SRB), CNS Cancer; conditions: SF-539 (CNS Cancer)
UACC-257 = experiment: NCI 60 cell line screen (SRB), Melanoma; conditions: UACC-257 (Melanoma)
SK-OV-3 = experiment: NCI 60 cell line screen (SRB), Ovarian Cancer; conditions: SK-OV-3 (Ovarian Cancer)
NCI-H23 = experiment: NCI 60 cell line screen (SRB), Non-Small Cell Lung Cancer
MDA-MB-435 = experiment: NCI 60 cell line screen (SRB), Breast Cancer; conditions: MDA-MB-435 (Breast Cancer)
PC-3 = experiment: NCI 60 cell line screen (SRB), Prostate Cancer; conditions: PC-3 (Prostate Cancer)
SF-268 = experiment: NCI 60 cell line screen (SRB), CNS Cancer; conditions: SF-268 (CNS Cancer)
IGROVI = experiment: NCI 60 cell line screen (SRB), Ovarian Cancer
[1] = test system: murine keratinocyte cell line PE; experiment: Growth inhibition of PE cells (MTT assay); conditions: murine keratinocytes, FIGS. 1-9
Procedure: To determine the inhibitory effect of the trioxane dimers of the present invention on cell proliferation, screening assays were performed on a murine keratinocyte cell line PE. […] PE cell culture medium consisted of Eagle's minimal essential medium without calcium chloride (Whittaker Bioproducts, Walkersville, Ma.) supplemented with 8% chelexed fetal calf serum and 1% antibiotic-antimycotic (Gibco BRL) and the addition of CaCl2 to 0.05 mM Ca^++. […] (St. Louis, Mo.), and TPA was supplied by L. C. Services (Woburn, Ma.). L-[^14C]ornithine ([…]) was from Amersham/Searle Corp. (Arlington Heights, Ill.). Chemical solvents used in all assays of biological activity were of the highest grade commercially available. Growth Inhibition. […] A mitochondrial dehydrogenase reduces MTT to a blue formazan product with an absorbance maximum of 505 nm in DMSO; the number of viable cells can thus be determined spectrophotometrically. PE cells were seeded at a density of 5,000 cells/well in 50 μL of medium into 96-well microtiter plates. […] The plates were fed once at 48 h, with the readdition of the vitamin D3 analogs at this time. […] After 4 h, the MTT was removed and DMSO added to dissolve the blue formazan dye. Using a microtiter plate reader, the […] was then determined and cell number calculated from blank-subtracted absorbance values.

HOP-62 = experiment: NCI 60 cell line screen (SRB), Non-Small Cell Lung Cancer; conditions: HOP-62 (Non-Small Cell Lung Cancer)
SN12C = experiment: NCI 60 cell line screen (SRB), Renal Cancer
OVCAR-4 = experiment: NCI 60 cell line screen (SRB), Ovarian Cancer; conditions: OVCAR-4 (Ovarian Cancer)
K-562 = experiment: NCI 60 cell line screen (SRB), Leukemia; conditions: K-562 (Leukemia)
SW-620 = experiment: NCI 60 cell line screen (SRB), Colon Cancer; conditions: SW-620 (Colon Cancer)
ACHN = experiment: NCI 60 cell line screen (SRB), Renal Cancer
SK-MEL-28 = experiment: NCI 60 cell line screen (SRB), Melanoma; conditions: SK-MEL-28 (Melanoma)
HL-60(TB) = experiment: NCI 60 cell line screen (SRB), Leukemia; conditions: HL-60(TB) (Leukemia)
CCRF-CEM = experiment: NCI 60 cell line screen (SRB), Leukemia
MDA-N = experiment: NCI 60 cell line screen (SRB), Breast Cancer
TK-10 = experiment: NCI 60 cell line screen (SRB), Renal Cancer; conditions: TK-10 (Renal Cancer)
HT29 = experiment: NCI 60 cell line screen (SRB), Colon Cancer
A498 = experiment: NCI 60 cell line screen (SRB), Renal Cancer
KM12 = experiment: NCI 60 cell line screen (SRB), Colon Cancer
CAKI-1 = experiment: NCI 60 cell line screen (SRB), Renal Cancer; conditions: CAKI-1 (Renal Cancer)

COC1OC2(C)CCC3CCCC(CCOC(=O)c4ccc(C(=O)OCCC5CCCC6CCC7(C)OOC56C(OC)O7)cc4)C31OO2 (centres unmarked) [Compound 11, Bis-ester Dimer]
Log10GI50 (HCT-15): −6.12 M
Log10LC50 (HCT-15): >−4.00 M
Log10TGI (HCT-15): >−4.00 M
Log10GI50 (LOX IMVI): −6.28 M
Log10LC50 (LOX IMVI): >−4.00 M
Log10TGI (LOX IMVI): >−4.00 M
Log10GI50 (NCI-H522): −5.66 M
Log10LC50 (NCI-H522): >−4.00 M
Log10TGI (NCI-H522): −4.45 M
Log10LC50 (SF-539): >−4.00 M
Log10GI50 (UACC-257): −5.36 M
Log10LC50 (UACC-257): >−4.00 M
Log10TGI (UACC-257): >−4.00 M
Log10GI50 (SK-OV-3): −5.28 M
Log10LC50 (SK-OV-3): >−4.00 M
Log10TGI (SK-OV-3): >−4.00 M
Log10GI50 (NCI-H23): −6.03 M
Log10LC50 (NCI-H23): >−4.00 M
Log10TGI (NCI-H23): −4.19 M
Log10GI50 (MDA-MB-435): −5.69 M
Log10LC50 (MDA-MB-435): >−4.00 M
Log10TGI (MDA-MB-435): −4.63 M
Log10GI50 (PC-3): −6.51 M
Log10LC50 (PC-3): >−4.00 M
Log10TGI (PC-3): >−4.00 M
Log10GI50 (SF-268): −5.14 M
Log10LC50 (SF-268): >−4.00 M
Log10TGI (SF-268): >−4.00 M
Log10GI50 (IGROVI): −4.95 M
Log10LC50 (IGROVI): >−4.00 M
Log10TGI (IGROVI): >−4.00 M
antiproliferative activity [1]: high antiproliferative activity
Log10GI50 (HOP-62): −5.01 M
Log10LC50 (HOP-62): >−4.00 M
Log10TGI (HOP-62): >−4.00 M
Log10GI50 (SN12C): −5.46 M
Log10LC50 (SN12C): >−4.00 M
Log10TGI (SN12C): >−4.00 M
Log10GI50 (OVCAR-4): −5.26 M
Log10LC50 (OVCAR-4): >−4.00 M
Log10TGI (OVCAR-4): >−4.00 M
Log10GI50 (K-562): −6.57 M
Log10LC50 (K-562): >−4.00 M
Log10TGI (K-562): >−4.00 M
Log10GI50 (SW-620): −6.12 M
Log10LC50 (SW-620): >−4.00 M
Log10TGI (SW-620): >−4.00 M
Log10GI50 (ACHN): −5.42 M
Log10LC50 (ACHN): >−4.00 M
Log10TGI (ACHN): >−4.00 M
Log10GI50 (SK-MEL-28): −4.31 M
Log10LC50 (SK-MEL-28): >−4.00 M
Log10TGI (SK-MEL-28): >−4.00 M
Log10GI50 (HL-60(TB)): −7.42 M
Log10LC50 (HL-60(TB)): −5.26 M
Log10TGI (HL-60(TB)): −6.58 M
Log10GI50 (CCRF-CEM): −6.57 M
Log10LC50 (CCRF-CEM): −4.05 M
Log10TGI (CCRF-CEM): −4.89 M
Log10GI50 (MDA-N): −5.56 M
Log10LC50 (MDA-N): >−4.00 M
Log10TGI (MDA-N): >−4.00 M
Log10GI50 (TK-10): −5.06 M
Log10LC50 (TK-10): >−4.00 M
Log10TGI (TK-10): >−4.00 M
Log10GI50 (HT29): −5.90 M
Log10LC50 (HT29): >−4.00 M
Log10TGI (HT29): >−4.00 M
Log10GI50 (A498): >−4.00 M
Log10LC50 (A498): >−4.00 M
Log10TGI (A498): >−4.00 M
Log10GI50 (KM12): −6.24 M
Log10LC50 (KM12): >−4.00 M
Log10TGI (KM12): >−4.00 M
Log10GI50 (CAKI-1): −4.99 M
Log10LC50 (CAKI-1): >−4.00 M
Log10TGI (CAKI-1): >−4.00 M
